Data on three compounds can be found in US5208344A, “Naphthalenepropionic acid derivatives as anti-inflammatory/antiallergic agents” (American Home Products Corporation, priority 1991, dated 1993).

Where a name gives a salt, the structure may show the parent alone.

Assay [1] deals with ovalbumin-induced bronchoconstriction. Put plainly: inhibition of antigen (ovalbumin)-induced bronchoconstriction in anesthetized guinea pigs. The class given is in vivo. The note with it: orally administered 4 hours before induction, guinea pig, 240 min. As for the experimental part: The compounds of the invention are tested to measure their in vivo ability to inhibit the bronchoconstriction induced in anesthetized guinea pigs by exogenously administered antigen.
Male Hartley guinea pigs (400-700 gm) are sensitized three weeks prior to antigen (ovalbumin-OA) challenge as follows: each guinea pig is given two intramuscular injections--0.35 ml of Grade V OA, 50 mg/ml, into each hindlimb.
Guinea pigs, fasted overnight but allowed water adlibitum, are anesthetized with 1.2 g/kg of urethane (intraperitoneal). Supplemental does of […] of urethane are administered intraperitoneally as needed. One carotid artery and one jugular vein are cannulated to allow for the monitoring of blood pressure and the administration of drugs, respectively. A duodenal cannula is inserted for intraduodenal dosing studies. The trachea of each animal is cannulated and connected to a Harvard respirator. […] Respiratory overflow pressure is measured from a side arm off the tracheal cannula which is connected via a Gould or Beckman pressure transducer to a suitable strip chart recorder. […]
Test compounds are administered intravenously, perorally, or intraduodenally at appropriate times prior to OA challenge. […] Control experiments are used to determine the effects of solvents on the measured parameters, and test data is corrected for any significant solvent effects.
Bronchoconstriction is assessed as increases in respiratory overflow pressure (cm H2 O). Changes in blood pressure (mm Hg) are also recorded.
Test compound-induced changes in the respiratory overflow pressure are assessed as percent changes from control experiments. […] The net change in overflow pressure is measured 5 minutes after antigen challenge and is calculated as follows. […] The percent change value for the drug treated group versus the control group is calculated as follows: […]

The target in the next assay is T1, 5-lipoxygenase (Rattus norvegicus, UniProt P12527).
T1 construct: Peritoneal PMN are obtained from female Wistar rats (150-250 g); endogenous in cells; host or cells: rat glycogen-elicited peritoneal polymorphonuclear leukocytes, intact
T1 sequence (P12527 1-673): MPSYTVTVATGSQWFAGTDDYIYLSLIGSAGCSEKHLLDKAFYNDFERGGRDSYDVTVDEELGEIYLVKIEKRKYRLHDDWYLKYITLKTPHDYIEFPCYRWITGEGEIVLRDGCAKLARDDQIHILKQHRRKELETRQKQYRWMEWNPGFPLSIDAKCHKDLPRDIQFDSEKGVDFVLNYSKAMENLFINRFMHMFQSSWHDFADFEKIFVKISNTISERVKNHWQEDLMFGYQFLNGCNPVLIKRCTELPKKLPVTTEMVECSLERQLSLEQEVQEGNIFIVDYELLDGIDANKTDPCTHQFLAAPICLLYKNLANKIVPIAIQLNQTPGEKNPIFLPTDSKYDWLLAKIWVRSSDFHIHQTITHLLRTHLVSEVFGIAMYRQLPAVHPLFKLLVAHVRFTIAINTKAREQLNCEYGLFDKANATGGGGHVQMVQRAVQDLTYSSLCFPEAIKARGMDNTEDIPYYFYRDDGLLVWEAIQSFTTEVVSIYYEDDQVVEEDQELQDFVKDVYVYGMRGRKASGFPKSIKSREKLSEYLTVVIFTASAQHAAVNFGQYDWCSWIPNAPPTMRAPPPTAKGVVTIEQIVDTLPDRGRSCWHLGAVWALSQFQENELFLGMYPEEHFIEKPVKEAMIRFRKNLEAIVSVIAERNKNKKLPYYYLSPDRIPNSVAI
Put plainly: inhibition of 5-HETE synthesis by rat glycogen elicited polymorphonuclear leukocytes. As to conditions: 10 μM, rat PMN, negative = potentiation of 5-HETE synthesis; for inhibition at 10 µM: read-out: % Inhibition of 5-LO (as 5-HETE). Format: cell-based. The procedure, abridged: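 Peritoneal PMN from female Wistar rats given i.p. glycogen 24 h earlier were preincubated with compound for 10 min at 37° C (2×10^7 cells/ml, 10 mM L-cysteine). They were then stimulated 10 min with 10 μM A23187 plus 0.5 μM [14C]arachidonic acid. 5-HETE was separated by TLC and quantified by scintillation.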

The next assay has as its system cyclooxygenase. Put plainly: inhibition of synthesis of cyclooxygenase products TxB2 and PGE2 (rat polymorphonuclear leukocytes). The class given is cell-based. As to conditions: 10 μM, rat PMN; for % Inhibition of CO (as PGE2): negative = potentiation of PGE2 synthesis. Put shortly:
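Glycogen-elicited peritoneal PMN from female Wistar rats, 2×10^7 cells/ml in HBSS with Ca^++, Mg^++ and 10 mM L-cysteine, preincubated with compound 10 min at 37° C. Stimulated 10 min with A23187 (10 μM) plus 0.5 μM [14C] arachidonic acid; TxB2 and PGE2 quantified by TLC, autoradiography and scintillation counting.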

For assay [2], the system named is acute gastroirritation induced by naproxen. The assay is described as follows: cytoprotective activity against NSAID (naproxen)-induced acute gastroirritation in rats. The class given is in vivo, rat. As to conditions: drug 100 mg/kg peroral 1 hour before naproxen 25 mg/kg. An excerpt:
The assay of Example 44 is also used to measure the cytoprotective activity of the compounds against acute gastroirritation induced by a nonsteroidal anti-inflammatory drug (NSAID).

The next assay has as its system carrageenan paw edema. The assay is described as follows: rat carrageenan paw edema assay. Format: in vivo. The note with it: 50 mg/kg peroral, 1 hour prior to carrageenan; rat. As for the experimental part:
The compounds of the invention are further tested in the rat carrageenan paw edema assay to determine their ability to inhibit the acute inflammatory response.
140-180 gm male Sprague-Dawley rats, in groups of 6 animals are injected subcutaneously in the right paw with 0.1 ml of 1% carrageenan at zero time. Mercury plethysmographic readings (ml) of the paw are made at zero time and 3 hours later. Test compounds are suspended or dissolved in 0.5% methylcellulose and given perorally 1 hour prior to carrageenan administration.
The increase in paw volume (edema in ml.) produced by the carrageenan is measured. […] Unpaired Student's t-test is used to determine statistical significance.

The target in the next assay is T2, LTD4 (Cavia porcellus, UniProt Q2NNR5).
T2 construct: isolated guinea pig trachea; from tissue; host or cells: guinea pig tracheal rings
T2 sequence (Q2NNR5 1-340): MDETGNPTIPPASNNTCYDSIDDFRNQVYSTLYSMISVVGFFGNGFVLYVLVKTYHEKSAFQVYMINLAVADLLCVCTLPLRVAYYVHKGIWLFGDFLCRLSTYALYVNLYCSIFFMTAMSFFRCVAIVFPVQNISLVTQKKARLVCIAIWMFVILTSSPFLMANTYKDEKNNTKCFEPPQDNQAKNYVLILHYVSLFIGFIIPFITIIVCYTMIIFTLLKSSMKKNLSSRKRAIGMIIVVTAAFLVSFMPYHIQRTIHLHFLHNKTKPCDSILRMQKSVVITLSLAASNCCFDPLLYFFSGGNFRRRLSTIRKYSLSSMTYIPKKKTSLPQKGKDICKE
Put plainly: inhibition of LTD4-induced bronchospasm in guinea pigs. Format: in vivo. As to conditions: 25 mg/kg intraduodenally, 10 minutes before LTD4; guinea pig. As for the experimental part:
The assay of this Example measures the in vivo ability of the compounds of the invention to inhibit the bronchospasm induced in guinea pigs by the exogenously administered leukotrienes C4 and/or D4.
Male Hartley strain guinea pigs (350-600 g) are anesthetized with pentobarbital sodium (50 mg/kg, i.p.). The jugular vein is cannulated for injection of drugs and the carotid artery for monitoring blood pressure. The trachea is cannulated for artificial ventilation by a miniature Starling pump and for indirect measurement of respiratory volume changes. The animals are then pretreated with succinylcholine (2 mg/kg i.v.) and indomethacin (10 mg/kg i.v.) in trizma 8.3 buffer, 9 minutes prior to leukotriene challenge. Submaximal bronchoconstrictor responses are established in control animals by varying the dose-levels of leukotriene. Intravenous dose-levels for LTC4 range from 0.4 to 0.6 μg/kg and for LTD4 the range is from 0.3 to 0.5 μg/kg. The aerosol bronchoprovocation dose for LTC4 is generated from 1.6 μM solution and for LTD4 from a 2.0 μM solution.
Test drugs (dissolved in a solvent such as propylene glycol, polyethylene glycol 400 or saline) are administered either intraduodenally, by aerosol or intragastrically at 2 or 10 minutes before induction of bronchospasm by administration of either LTC4 or LTD4 at the predetermined dose-levels. Aerosols of soluble drugs or leukotrienes are produced in-line for 10 seconds only by actuation of an ultrasonic nebulizer (Monaghan). Aerosolized drug dosage is expressed in terms of solution concentration and by a fixed aerosol exposure time (approximately 10 seconds). Control animals receive solvent (2 ml/kg i.d. or appropriate aerosol) in place of drug.
Respiratory volume changes are determined by a calibrated piston whose travel is recorded, via a linear transducer, on a Beckman Dynograph recorder. Maximal bronchoconstrictor volume is determined by clamping off the trachea at the end of the experiment. Overflow volumes at 1,3 and 5 minutes are obtained from the recorded charts.
Area under the volume overflow curve (AUC) is estimated, using the overflow values at 1,3 and 5 minutes, and expressed as a percentage of the maximal overflow AUC (equation 1): [formula] Drug effects are reported as percent inhibition of % max AUC values obtained from appropriate control animals (equation 2): [formula]
Student's t-test for unpaired data is used to determine statistical signifiance (p<0.05). IC50 values can also be determined by inverse prediction from linear regression liens through points between 10 and 90% inhibition.

As to `C[C@H](C(=O)O)c1ccc2cc(OCc3ccc4ccccc4n3)ccc2c1` [Example 16, S-(+)-α-Methyl-6-(2-quinolinylmethoxy)-2-naphthaleneacetic acid, sodium salt], in assay [1] (sodium salt), the “ED50 (ovalbumin-induced bronchoconstriction)” value is recorded as 15 mg/kg. Further, the “% Inhibition of 5-LO (as 5-HETE)” value at 5-lipoxygenase (sodium salt) was 100%. Besides, the “% Inhibition of CO (as PGE2)” value in the assay on cyclooxygenase (sodium salt) is recorded as -13%.
Consider `C[C@H](C(=O)O)c1ccc2cc(OCc3ccc4ccccc4n3)ccc2c1` [Example 7, S-(α)-α-Methyl-6-(2-quinolinylmethoxy)-2-naphthaleneacetic acid], for which the “ED50 (ovalbumin-induced bronchoconstriction)” value in assay [1] came out at 100 mg/kg. Further, the inhibition at 10 µM on 5-lipoxygenase was found to be 100%. Besides, the “% Inhibition of CO (as PGE2)” value in the assay on cyclooxygenase is reported as -17%. In addition, in assay [2], the “% of Rats With Lesions” value worked out at 87.5% and the “Comments (protection)” value is reported as “no protection”.
For `CC(C(=O)O)c1ccc2cc(OCc3ccccc3)ccc2c1` (stereo not drawn) [Example 2, α-Methyl-6-(phenylmethoxy)-2-naphthaleneacetic acid], at 5-lipoxygenase, the inhibition at 10 µM stood at 84%. Further, in the assay on cyclooxygenase, the “% Inhibition of CO (as TxB2)” value is given as 6% and the “% Inhibition of CO (as PGE2)” value is given as -26%. Also, the “% Inhibition at 50 mg/kg (peroral)” value in the assay on carrageenan paw edema came to 24%. Moreover, the “% Inhibition (LTD4-induced bronchospasm)” value at LTD4 is -76%.
